Measured values taken from patent publication US20200222531A1, “METHODS OF POPULATING PRECIPITATED PARTICLES OF A MODIFIED OR SYNTHESIZED SUBSTANCE IN A TISSUE” (priority 2010, published 2020).

Assay: Solubility of urushiol in 95% ethanol and in water
Type: physicochemical
Text: The poison ivy allergen, urushiol, is soluble in 95% ethanol but insoluble in water. Intramuscular injection of urushiol in small volumes of 95% ethanol results in precipitation of large numbers of small insoluble particles as the ethanol is rapidly diluted by interstitial or tissue fluid, resulting in a […] enhancement of tolerogenesis per mg administered urushiol. As the most practical way to make an Ara h2 vaccine with the solubility properties needed to exploit the benefit of this delivery system may be a derivative of a process already known to enhance tolerogenesis, the inventors have the opportunity to see if the synergistic application of two methods of tolerogenesis enhancement yields a sufficiently high ratio of tolerogenicity to allergenicity to constitute a predictably safe and effective treatment for peanut allergy.

urushiol
solubility in 95% ethanol (95% ethanol): soluble | solubility in water (water): insoluble
